Values of other authors in publication PMC2748991 (Planta medica, 2009).

Experiments:
[1] = test system: elastase; conditions: ref [3],[4]
[2] = test system: trypsin; conditions: ref [5]

Substance	elastase inhibition (in words) [1]	trypsin inhibition (in words) [2]
lyngbyastatin 6	potent inhibitors	
lyngbyastatin 5	potent inhibitors	
pompanopeptin A		trypsin inhibitor
